Assay results: ChEMBL document CHEMBL2203011, “Psammaplysin derivatives from the Balinese marine sponge Aplysinella strongylata” (J Nat Prod, 2012)
Calls of active or inactive are those of the source. The rule behind the calls is not given here.

What was measured:
[1] = test system: Plasmodium falciparum; assay: Antiplasmodial activity against chloroquine-sensitive Plasmodium falciparum 3D7 infected in erythrocytes assessed as growth inhibition at 10 uM incubated for 48 hrs by [3H]hypoxanthine incorporation assay; format: functional, organism-based
[2] = test system: Plasmodium falciparum; assay: Antiplasmodial activity against chloroquine-sensitive Plasmodium falciparum 3D7 infected in erythrocytes assessed as growth inhibition incubated for 48 hrs by [3H]hypoxanthine incorporation assay; format: functional, organism-based

Structure (SMILES): CCCCCCCCCCCCCCCCCC(=O)NCC(O)c1cc(Br)c(OCCCNC(=O)C2=NO[C@@]3(CC(Br)=C(OC)C(Br)=CO3)[C@H]2O)c(Br)c1 (some centres undefined)
- growth inhibition (GI) [1]: inactive

Structure (SMILES): COC1=C(Br)C[C@]2(OC=C1Br)ON=C(C(=O)NCCCOc1c(Br)cc(C(O)CNC=C3C(=O)C=CC3=O)cc1Br)[C@@H]2O (some centres undefined)
- growth inhibition (GI) [1]: Active
- IC50 [2]: 6.4 µM

Structure (SMILES): CCC(C)CCCCCCCCCCCCCCC(=O)NCCc1cc(Br)c(OCCCNC(=O)C2=NO[C@@]3(CC(Br)=C(OC)C(Br)=CO3)[C@H]2O)c(Br)c1 (some centres undefined)
- growth inhibition (GI) [1]: inactive

Structure (SMILES): COC1=C(Br)C[C@]2(OC=C1Br)ON=C(C(=O)NCCCOc1c(Br)cc(CCNC(=O)CO)cc1Br)[C@@H]2O
- growth inhibition (GI) [1]: inactive

Structure (SMILES): COC1=C(Br)C[C@]2(OC=C1Br)ON=C(C(=O)NCCCOc1c(Br)cc(CCNC(=O)CCCCCCCCCCCCC(C)C)cc1Br)[C@@H]2O
- growth inhibition (GI) [1]: inactive

Structure (SMILES): COC1=C(Br)C[C@]2(OC=C1Br)ON=C(C(=O)NCCCOc1c(Br)cc(C3CNC(=O)O3)cc1Br)[C@@H]2O (some centres undefined)
- growth inhibition (GI) [1]: inactive

Structure (SMILES): COC1=C(Br)C[C@]2(OC=C1Br)ON=C(C(=O)NCCCOc1c(Br)cc(C=O)cc1Br)[C@@H]2O
- growth inhibition (GI) [1]: inactive

Structure (SMILES): CCCCC/C=C\CCCCCCCCC(=O)NCCc1cc(Br)c(OCCCNC(=O)C2=NO[C@@]3(CC(Br)=C(OC)C(Br)=CO3)[C@H]2O)c(Br)c1
- growth inhibition (GI) [1]: inactive
